According to publication PMC2776710 (Basic research in cardiology, 2009):

Molecular target: mitochondrial respiratory complex II (succinate-ubiquinone oxidoreductase) (Rattus norvegicus, UniProt P21913+Q641Z9+Q6PCT8)
Sequence (P21913 31-282): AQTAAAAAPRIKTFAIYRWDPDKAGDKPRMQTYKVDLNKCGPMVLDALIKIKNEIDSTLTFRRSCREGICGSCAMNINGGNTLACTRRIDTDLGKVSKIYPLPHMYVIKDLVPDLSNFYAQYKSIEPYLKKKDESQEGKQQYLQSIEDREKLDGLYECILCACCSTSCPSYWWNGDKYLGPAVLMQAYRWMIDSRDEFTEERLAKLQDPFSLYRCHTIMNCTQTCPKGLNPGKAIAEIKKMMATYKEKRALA
Sequence (Q641Z9 30-169): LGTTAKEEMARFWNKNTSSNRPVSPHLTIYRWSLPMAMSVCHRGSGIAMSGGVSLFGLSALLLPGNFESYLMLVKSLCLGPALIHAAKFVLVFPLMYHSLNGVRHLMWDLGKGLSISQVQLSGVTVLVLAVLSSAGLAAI
Sequence (Q6PCT8 57-159): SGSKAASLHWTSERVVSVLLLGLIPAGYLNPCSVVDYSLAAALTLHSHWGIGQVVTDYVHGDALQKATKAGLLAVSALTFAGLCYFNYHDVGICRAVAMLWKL
Sequence (Q920L2 35-656 partner): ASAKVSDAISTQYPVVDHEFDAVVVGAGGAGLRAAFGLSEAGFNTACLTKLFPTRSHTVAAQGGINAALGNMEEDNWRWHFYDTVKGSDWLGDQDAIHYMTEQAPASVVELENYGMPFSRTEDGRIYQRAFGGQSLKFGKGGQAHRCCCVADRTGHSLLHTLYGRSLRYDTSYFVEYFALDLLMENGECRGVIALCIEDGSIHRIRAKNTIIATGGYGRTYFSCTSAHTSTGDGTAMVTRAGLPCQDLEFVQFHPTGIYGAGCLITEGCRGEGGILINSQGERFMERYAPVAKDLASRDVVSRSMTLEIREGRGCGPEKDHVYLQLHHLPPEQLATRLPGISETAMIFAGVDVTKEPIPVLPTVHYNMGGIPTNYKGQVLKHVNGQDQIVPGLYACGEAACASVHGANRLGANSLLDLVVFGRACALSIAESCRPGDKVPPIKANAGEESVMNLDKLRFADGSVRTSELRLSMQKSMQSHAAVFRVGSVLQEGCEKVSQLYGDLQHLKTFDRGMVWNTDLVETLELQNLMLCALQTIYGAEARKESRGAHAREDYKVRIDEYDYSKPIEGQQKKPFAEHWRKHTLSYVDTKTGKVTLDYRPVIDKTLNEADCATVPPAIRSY

COc1[nH]c(=O)c(C(=O)[C@@H](C)C[C@H](C)[C@@H](Cl)CCl)c(O)c1OC [AA5, atpenin A5]
IC50: 8.3 nM
